Reference: ChEMBL document CHEMBL3351376, “Design, synthesis, and structure-activity relationship of novel opioid κ receptor selective agonists: α-iminoamide derivatives with an azabicyclo[2.2.2]octene skeleton” (Bioorg Med Chem Lett, 2014)

Legend:
[1] = molecular target: Mu-type opioid receptor (Mus musculus, UniProt P42866); assay: Displacement of [3H]DAMGO from mu opioid receptor in mouse brain membranes without cerebellum; type: cell membranes, Membrane
[2] = molecular target: Delta-type opioid receptor (Mus musculus, UniProt P32300); assay: Displacement of [3H]DPDPE from delta opioid receptor in mouse brain membranes without cerebellum; type: cell membranes, Membrane
Chain of Delta-type opioid receptor (Mus musculus, UniProt P32300) (P32300 whole entry): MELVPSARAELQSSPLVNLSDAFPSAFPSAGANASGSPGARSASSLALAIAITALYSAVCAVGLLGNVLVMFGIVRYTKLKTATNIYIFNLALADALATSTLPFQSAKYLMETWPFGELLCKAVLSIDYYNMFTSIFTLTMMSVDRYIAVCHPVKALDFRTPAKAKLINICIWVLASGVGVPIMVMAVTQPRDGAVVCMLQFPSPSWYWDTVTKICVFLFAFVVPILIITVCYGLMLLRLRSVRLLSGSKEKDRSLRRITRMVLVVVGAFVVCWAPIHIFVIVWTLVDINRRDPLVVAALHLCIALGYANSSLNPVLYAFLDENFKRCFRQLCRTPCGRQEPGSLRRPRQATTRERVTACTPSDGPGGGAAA

[3] = molecular target: Kappa-type opioid receptor (Cavia porcellus, UniProt P41144); assay: Displacement of [3H]U-69593 from kappa opioid receptor in guinea pig cerebellum
Chain of Kappa-type opioid receptor (Cavia porcellus, UniProt P41144) (P41144 whole entry): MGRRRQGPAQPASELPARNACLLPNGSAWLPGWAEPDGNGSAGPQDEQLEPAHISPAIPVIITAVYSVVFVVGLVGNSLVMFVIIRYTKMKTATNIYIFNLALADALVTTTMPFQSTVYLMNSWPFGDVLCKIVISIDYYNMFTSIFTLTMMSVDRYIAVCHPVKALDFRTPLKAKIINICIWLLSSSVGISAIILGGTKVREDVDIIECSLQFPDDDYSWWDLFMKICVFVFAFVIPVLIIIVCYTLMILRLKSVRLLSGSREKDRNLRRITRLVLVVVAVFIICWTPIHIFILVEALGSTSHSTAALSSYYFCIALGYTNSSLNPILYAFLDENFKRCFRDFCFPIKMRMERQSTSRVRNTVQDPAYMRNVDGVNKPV

[4] = Selectivity ratio of Ki for mu opioid receptor in mouse brain membranes without cerebellum to Ki for kappa opioid receptor in guinea pig cerebellum; type: cell membranes
[5] = molecular target: T1, Mu-type opioid receptor (Homo sapiens, UniProt P35372); assay: Agonist activity at human mu opioid receptor expressed in CHO cells by [35S]GTPgammaS binding assay; type: functional, cell-based
T1 sequence (P35372 whole entry): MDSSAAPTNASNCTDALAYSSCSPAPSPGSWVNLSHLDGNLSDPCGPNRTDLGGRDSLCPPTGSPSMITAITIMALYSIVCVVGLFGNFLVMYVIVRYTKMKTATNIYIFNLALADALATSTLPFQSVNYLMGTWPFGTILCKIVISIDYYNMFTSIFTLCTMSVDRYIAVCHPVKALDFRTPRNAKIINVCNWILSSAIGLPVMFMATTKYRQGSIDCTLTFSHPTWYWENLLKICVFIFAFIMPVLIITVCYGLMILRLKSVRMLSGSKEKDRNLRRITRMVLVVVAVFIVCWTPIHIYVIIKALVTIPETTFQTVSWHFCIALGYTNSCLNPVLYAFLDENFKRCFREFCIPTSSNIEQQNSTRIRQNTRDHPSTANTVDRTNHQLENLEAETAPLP

[6] = molecular target: T2, Delta-type opioid receptor (Homo sapiens, UniProt P41143); assay: Agonist activity at human delta opioid receptor expressed in CHO cells by [35S]GTPgammaS binding assay; type: functional, cell-based
T2 sequence (P41143 whole entry): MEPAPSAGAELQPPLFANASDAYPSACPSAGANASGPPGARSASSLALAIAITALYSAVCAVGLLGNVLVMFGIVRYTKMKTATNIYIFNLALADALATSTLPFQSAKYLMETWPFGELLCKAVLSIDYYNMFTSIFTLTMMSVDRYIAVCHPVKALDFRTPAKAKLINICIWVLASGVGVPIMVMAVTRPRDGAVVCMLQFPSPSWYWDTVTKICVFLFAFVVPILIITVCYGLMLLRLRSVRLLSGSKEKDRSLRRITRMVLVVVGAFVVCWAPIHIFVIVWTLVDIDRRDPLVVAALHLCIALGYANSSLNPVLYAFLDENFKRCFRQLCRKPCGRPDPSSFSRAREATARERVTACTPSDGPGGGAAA

[7] = molecular target: T3, Kappa-type opioid receptor (Homo sapiens, UniProt P41145); assay: Agonist activity at human kappa opioid receptor expressed in CHO cells by [35S]GTPgammaS binding assay; type: functional, cell-based
T3 sequence (P41145 whole entry): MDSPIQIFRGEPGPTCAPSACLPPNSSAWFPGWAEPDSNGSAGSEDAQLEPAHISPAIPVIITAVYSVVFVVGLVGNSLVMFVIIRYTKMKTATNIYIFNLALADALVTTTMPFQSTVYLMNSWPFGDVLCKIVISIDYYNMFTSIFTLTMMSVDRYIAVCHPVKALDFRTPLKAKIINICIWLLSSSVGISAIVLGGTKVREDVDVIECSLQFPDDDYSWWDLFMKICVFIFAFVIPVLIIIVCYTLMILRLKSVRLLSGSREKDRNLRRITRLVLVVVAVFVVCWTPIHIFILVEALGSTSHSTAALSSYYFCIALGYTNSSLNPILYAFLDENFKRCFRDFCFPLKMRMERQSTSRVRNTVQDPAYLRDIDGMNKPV

[8] = molecular target: T1, Mu-type opioid receptor; assay: Agonist activity at human mu opioid receptor expressed in CHO cells by [35S]GTPgammaS binding assay relative to DAMGO; type: functional, cell-based
[9] = molecular target: T2, Delta-type opioid receptor; assay: Agonist activity at human delta opioid receptor expressed in CHO cells by [35S]GTPgammaS binding assay relative to SNC80; type: functional, cell-based
[10] = molecular target: T3, Kappa-type opioid receptor; assay: Agonist activity at human kappa opioid receptor expressed in CHO cells by [35S]GTPgammaS binding assay relative to U-69593; type: functional, cell-based

Chain of Mu-type opioid receptor (Mus musculus, UniProt P42866) (P42866 whole entry): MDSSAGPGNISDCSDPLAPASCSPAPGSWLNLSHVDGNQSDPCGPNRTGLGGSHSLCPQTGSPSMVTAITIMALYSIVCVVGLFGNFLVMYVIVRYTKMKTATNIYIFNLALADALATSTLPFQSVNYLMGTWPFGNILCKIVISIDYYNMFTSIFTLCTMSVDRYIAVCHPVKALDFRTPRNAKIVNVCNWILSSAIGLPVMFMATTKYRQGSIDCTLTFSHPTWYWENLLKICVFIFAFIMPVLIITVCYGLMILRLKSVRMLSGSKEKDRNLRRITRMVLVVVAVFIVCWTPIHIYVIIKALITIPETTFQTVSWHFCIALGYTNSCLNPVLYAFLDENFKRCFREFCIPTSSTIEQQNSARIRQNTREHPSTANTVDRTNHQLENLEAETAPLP

Structure (SMILES)	Ki [1] [nM]	Ki [2] [nM]	Ki [3] [nM]	Ratio Ki [4]	EC50 [5] [nM]	EC50 [6] [nM]	EC50 [7] [nM]	Emax [8] [%]	Emax [9] [%]	Emax [10] [%]
O=C(NCc1ccccc1)C1=N[C@@]23CC[C@]1(O)C1Oc4c(O)ccc5c4C12CCN(CC1CC1)C3C5 (some centres undefined)	0.14	0.61	0.043	3.25	0.4	1.7	0.033	101	93.2	91.2
O=C(C[C@H]1N[C@@]23CC[C@]1(O)C1Oc4c(O)ccc5c4C12CCN(CC1CC1)C3C5)NCc1ccccc1 (some centres undefined)	0.052	0.15	0.037	1.42						
O=C(NCc1ccccc1)[C@H]1N[C@@]23CC[C@]1(O)C1Oc4c(O)ccc5c4C12CCN(CC1CC1)C3C5 (some centres undefined)	0.24	0.81	0.23	1.04						
O=C1C[C@@H]2N(CN1Cc1ccccc1)[C@@]13CC[C@]2(O)C2Oc4c(O)ccc5c4C21CCN(CC1CC1)C3C5 (some centres undefined)	0.68	3.83	7.74	0.09						
Oc1ccc2c3c1OC1C34CCN(CC3CC3)C(C2)[C@]42CC[C@@]1(O)C=N2 (some centres undefined)	0.28	6.12	1.42	0.2						
O=C(NCc1ccccc1)[C@@H]1N[C@@]23CC[C@]1(O)C1Oc4c(O)ccc5c4C12CCN(CC1CC1)C3C5 (some centres undefined)	0.15	0.45	0.18	0.83						
O=C1C[C@H]2N(CN1Cc1ccccc1)[C@@]13CC[C@]2(O)C2Oc4c(O)ccc5c4C21CCN(CC1CC1)C3C5 (some centres undefined)	0.43	4.93	1.54	0.28						
O=C(C[C@@H]1N[C@@]23CC[C@]1(O)C1Oc4c(O)ccc5c4C12CCN(CC1CC1)C3C5)NCc1ccccc1 (some centres undefined)	0.13	1.12	0.11	1.16						
CN(C(=O)/C=C/c1ccoc1)[C@@H]1CC[C@@]2(O)[C@H]3Cc4ccc(O)c5c4[C@@]2(CCN3CC2CC2)[C@H]1O5 [NALFURAFINE]					0.72			70.4	55.2	
O=C(Nc1ccccc1)C1=N[C@@]23CC[C@]1(O)C1Oc4c(O)ccc5c4C12CCN(CC1CC1)C3C5 (some centres undefined)	0.36	0.32	0.38	0.95						
O=C(NCCc1ccccc1)C1=N[C@@]23CC[C@]1(O)C1Oc4c(O)ccc5c4C12CCN(CC1CC1)C3C5 (some centres undefined)	0.4	0.86	0.12	3.5	1.09	> 1000	0.18	44.9		76.3
